Reference: ChEMBL document CHEMBL1124525, “Hexestrol-linked cytotoxic agents: synthesis and binding affinity for estrogen receptors” (J Med Chem, 1989)

target: T1, Estrogen receptor (Rattus norvegicus) (UniProt P06211+Q62986); assay: Relative binding affinity for estrogen receptor; assay type: protein assay

Structure (SMILES) | relative binding affinity (RBA)
CC[C@@](C)(c1ccc(O)cc1)[C@H](CCCC(=O)O)c1ccc(O)cc1 | 0.1

target: T1, Estrogen receptor (Rattus norvegicus); assay: Binding affinity to estrogen receptor; assay type: protein assay

Structure (SMILES) | relative binding affinity (RBA)
CC[C@@](C)(c1ccc(O)cc1)[C@H](CCCCN)c1ccc(O)cc1 (relative stereo) | 2
C=CCCC[C@H](c1ccc(O)cc1)[C@@](C)(CC)c1ccc(O)cc1 (relative stereo) | 1
CCSCCCCC(c1ccc(O)cc1)C(C)(CC)c1ccc(O)cc1 (stereo unspecified) | 0.2
CC[C@@](C)(c1ccc(O)cc1)[C@H](CCCCN(CCO)CCO)c1ccc(O)cc1 (relative stereo) | 0.9
CC[C@@](C)(c1ccc(O)cc1)[C@H](CCCC(=O)N(CCO)CCO)c1ccc(O)cc1 | 0.2
CC[C@](C)(c1ccc(O)cc1)[C@H](CCCCN(CCCl)CCCl)c1ccc(O)cc1 (relative stereo) | 2.5
CC[C@@](C)(c1ccc(O)cc1)[C@H](CCCCOCCOCCCl)c1ccc(O)cc1 (relative stereo) | 1
CC[C@@](C)(c1ccc(O)cc1)[C@H](CCCCO)c1ccc(O)cc1 (relative stereo) | 1.5
CC[C@@](C)(c1ccc(O)cc1)[C@H](CCCCCl)c1ccc(O)cc1 (relative stereo) | 1.5
CC[C@@](C)(c1ccc(O)cc1)[C@H](CCCC(=O)NC)c1ccc(O)cc1 | 0.2
CC[C@@](C)(c1ccc(O)cc1)[C@H](CCCCOS(C)(=O)=O)c1ccc(O)cc1 | 0.3
CC[C@@](C)(c1ccc(O)cc1)[C@H](CCCC(N)=O)c1ccc(O)cc1 | 0.9
CC[C@@](C)(c1cc(Br)c(O)c(Br)c1)[C@H](CCCCO)c1ccc(O)c(Br)c1 | 0.1
CC[C@@](C)(c1ccc(O)cc1)[C@H](CCCCN1CCCOP1(=O)N(CCCl)CCCl)c1ccc(O)cc1 (relative stereo) | 1
CC[C@](C)(c1ccc(O)cc1)[C@H](CCCCNCCCl)c1ccc(O)cc1 (relative stereo) | 1
CC[C@@](C)(c1ccc(O)cc1)[C@H](CCCC=O)c1ccc(O)cc1 | 1
CC[C@@](C)(c1ccc(O)cc1)[C@H](CCCC(=O)NCCO)c1ccc(O)cc1 | 0.1
CC[C@@](C)(c1ccc(O)cc1)[C@H](CCCCOC(C)=O)c1ccc(O)cc1 | 1
CC[C@@](C)(c1ccc(O)cc1)[C@H](CCCCOCCO)c1ccc(O)cc1 | 1
CC[C@@](C)(c1ccc(O)cc1)[C@H](CCCCI)c1ccc(O)cc1 (relative stereo) | 0.2
CC[C@@](C)(c1ccc(O)cc1)[C@H](CCCCC=O)c1ccc(O)cc1 | 1
CC[C@@](C)(c1ccc(O)cc1)[C@H](CCCC(=O)OC)c1ccc(O)cc1 | 0.2
CC[C@@](C)(c1ccc(O)cc1)[C@H](CCCCOCCOCCO)c1ccc(O)cc1 | 1
CC[C@@](C)(c1ccc(O)cc1)[C@H](CCCCOCCOCCOCCCl)c1ccc(O)cc1 (relative stereo) | 0.5
CC[C@@](C)(c1ccc(O)cc1)[C@H](CCCCSCCO)c1ccc(O)cc1 (relative stereo) | 0.4
CC[C@@](C)(c1ccc(O)cc1)[C@H](CCCCNC(=O)N(CCCl)N=O)c1ccc(O)cc1 | 1
CC[C@@](C)(c1ccc(O)cc1)[C@H](CCCCOCCCl)c1ccc(O)cc1 (relative stereo) | 0.3
CC[C@@](C)(c1ccc(O)cc1)[C@H](CCCCOCCOCCOCCO)c1ccc(O)cc1 | 1
CCCC[C@H](c1ccc(O)cc1)[C@@](C)(CC)c1ccc(O)cc1 (relative stereo) | 1
CC[C@@](C)(c1ccc(O)cc1)[C@H](CCCCBr)c1ccc(O)cc1 (relative stereo) | 1
